According to US8329926B2, “Antiviral compounds” (Gilead Sciences, Inc., priority 2004, dated 2012):
Structures can show the parent of a compound that is named as a salt. Where two headings read alike, the source gives them in different places.

Assays:
HIV-1 = test: Anti-HIV-1 activity (EC50); type: cell-based
mtDNA = mtDNA IC50; type: cell-based
K65R = details: FIG. 1
6TAM = details: FIG. 1
M184V = details: FIG. 1

Compound `Nc1nc(N)c2ncn([C@@H]3O[C@H](OCP(=O)(O)O)C=C3F)c2n1` [2′F-d4DAPP] has an EC50 (HIV-1; read-out: EC50 [uM] HIV-1) of 100 to 1000 µM.

With `Nc1ncnc2c1ncn2[C@@H]1O[C@H](OCP(=O)(O)O)C=C1F` [2′F-d4AP, (2′R, 5′R)-9-(3-fluoro-2,5-dihydro-5-phosphonomethoxy-2-furanyl)adenine di sodium salt] the EC50 (HIV-1; read-out: EC50 [uM] HIV-1) was 1 to 100 µM, the IC50 (mtDNA; FIG. 2, read-out: IC50 [uM] mtDNA) was 100 to 1000 µM and the CC50 (MT-2) was under 1000 µM.

`C[C@H](Cn1cnc2c(N)ncnc21)OCP(=O)(O)O` [Tenofovir] was tested, and the EC50 (HIV-1; FIG. 1, read-out: EC50 [uM] HIV-1) was 1 to 100 µM, the IC50 (mtDNA; FIG. 1, read-out: mtDNA 1050) was 100 to 1000 µM and the CC50 (MT-2) was under 1000 µM. For the same compound, the “Resistance - fold EC50 K65R” value (K65R) was “+++ (+++=1-100)”, the “Resistance - fold EC50 6TAM” value (6TAM) was “+++ (+++=1-100)” and the “Resistance - fold EC50 M184V” value (M184V) was “++++ (++++=0.01-1)”.

`CCCOC(=O)[C@H](C)NP(=O)(CO[C@@H]1C=C(F)[C@H](n2cnc3c(N)ncnc32)O1)N[C@@H](C)C(=O)OCCC` [drawing 144 (Ala) n-Propyl] was tested, and the EC50 (HIV-1; Human immunodeficiency virus 1, FIG. 5, prodrugs by R1 (aa) and R2 (ester), read-out: EC50) was 0.1 to 1 µM.
